Source: patent US10035760B2, “Inhibitors of human immunodeficiency virus replication” (priority 2013, dated 2018)
Where two headings read alike, the source gives them in different places.

System: recombinant NL4-3 virus (Renilla luciferase) in MT-2 cells
Experiment: HIV cell culture assay (antiviral activity, luciferase readout in infected MT-2 cells)
Format: cell-based
Summary of the method: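 Nef-deleted NL4-3 carrying Renilla luciferase, produced by 293T transfection, used to infect MT-2 cells for 4–5 days with serial compound dilutions. Live-cell luciferase signal read as infection marker; EC50 from exponential median-effect equation.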

[1] = Renilla, NL43, read-out: Activity, antiviral activity class, recombinant NL4-3 Renilla luciferase virus in MT-2 cells
[2] = Renilla, NL43, recombinant NL4-3 Renilla luciferase virus in MT-2 cells
[3] = recombinant NL4-3 Renilla luciferase virus in MT-2 cells, read-out: EC50

Compound	EC50 [1] [nM]	other results
COc1cc(N(C)C(=O)[C@H](Cc2ccccc2)NC(=O)NS(=O)(=O)c2ccccc2C)cc(OC)c1OC [Example JB-82, (S)—N-methyl-3-phenyl-2-(3-(o-tolylsulfonyl)ureido)-N-(3,4,5-trimethoxyphenyl)propanamide]	1000 to 10000	
COc1ccc(N(C)C(=O)[C@H](Cc2ccccc2)NC(=O)NS(=O)(=O)c2ccccc2C)c(C)c1 [Example JB-83, (S)—N-(4-methoxy-2-methylphenyl)-N-methyl-3-phenyl-2-(3-(o-tolylsulfonyl)ureido)propanamide]	100 to 1000	
COc1cc(C)c(N(C)C(=O)[C@H](Cc2ccccc2)NC(=O)NS(=O)(=O)c2ccccc2C)cc1C [Example JB-84, (S)—N-(4-methoxy-2,5-dimethylphenyl)-N-methyl-3-phenyl-2-(3-(o-tolylsulfonyl)ureido)propanamide]	100 to 1000	
COc1ccc(N(C)C(=O)[C@H](Cc2ccccc2)NC(=O)NS(=O)(=O)c2c(C)n(C)c3ccccc23)cc1 [Example JB-85, (S)-2-(3-((1,2-dimethyl-1H-indol-3-yl)sulfonyl)ureido)-N-(4-methoxyphenyl)-N-methyl-3-phenylpropanamide]	100 to 1000	
COc1ccc(N(Cc2ccccc2)C(=O)[C@H](Cc2ccccc2)NC(=O)NS(=O)(=O)c2ccccc2C)cc1 [Example ZY-3, (S)—N-benzyl-N-(4-methoxyphenyl)-3-phenyl-2-(3-(o-tolylsulfonyl)ureido)propanamide]	1000 to 10000	EC50 [2]: 3610 nM
COc1ccc(N(Cc2ccncc2)C(=O)[C@H](Cc2ccccc2)NC(=O)NS(=O)(=O)c2ccccc2C)cc1 [Example ZY-4, (S)—N-(4-methoxyphenyl)-3-phenyl-N-(pyridin-4-ylmethyl)-2-(3-(o-tolylsulfonyl)ureido)propanamide]	1000 to 10000	
COc1ccc(N(CCc2ccccc2)C(=O)[C@H](Cc2ccccc2)NC(=O)NS(=O)(=O)c2ccccc2C)cc1 [Example ZY-5, (S)—N-(4-methoxyphenyl)-N-phenethyl-3-phenyl-2-(3-(o-tolylsulfonyl)ureido)propanamide]	10000 to 100000	EC50 [2]: 11400 nM
COc1ccc(N(CC(C)C)C(=O)[C@H](Cc2ccccc2)NC(=O)NS(=O)(=O)c2ccccc2C)cc1 [Example ZY-6, (S)—N-isobutyl-N-(4-methoxyphenyl)-3-phenyl-2-(3-(o-tolylsulfonyl)ureido)propanamide]	1000 to 10000	
Cc1ccccc1S(=O)(=O)NC(=O)N[C@@H](Cc1cc(F)cc(F)c1)C(=O)N(C)c1ccc2scnc2c1 [Example ZY-7, (S)—N-(benzo[d]thiazol-5-yl)-3-(3,5-difluorophenyl)-N-methyl-2-(3-(o-tolylsulfonyl)ureido)propanamide]	< 100	
CN(C(=O)[C@H](Cc1cc(F)cc(F)c1)NC(=O)NS(=O)(=O)c1ccccc1Cl)c1ccc2scnc2c1 [Example ZY-13, (S)—N-(benzo[d]thiazol-5-yl)-2-(3-((2-chlorophenyl)sulfonyl)ureido)-3-(3,5-difluorophenyl)-N-methylpropanamide]	< 100	EC50 [2]: 30 nM
CN(C(=O)[C@H](Cc1cc(F)cc(F)c1)NC(=O)NS(=O)(=O)c1cc(F)ccc1F)c1ccc2scnc2c1 [Example ZY-14, (S)—N-(benzo[d]thiazol-5-yl)-3-(3,5-difluorophenyl)-2-(3-((2,5-difluorophenyl)sulfonyl)ureido)-N-methylpropanamide]	100 to 1000	
CN(C(=O)[C@H](Cc1cc(F)cc(F)c1)NC(=O)NS(=O)(=O)c1ccccc1F)c1ccc2scnc2c1 [Example ZY-16, (S)—N-(benzo[d]thiazol-5-yl)-3-(3,5-difluorophenyl)-2-(3-((2-fluorophenyl)sulfonyl)ureido)-N-methylpropanamide]	< 100	
CN(C(=O)[C@H](Cc1cc(F)cc(F)c1)NC(=O)NS(=O)(=O)c1ccc(F)cc1F)c1ccc2scnc2c1 [Example ZY-17, (S)—N-(benzo[d]thiazol-5-yl)-3-(3,5-difluorophenyl)-2-(3-((2,4-difluorophenyl)sulfonyl)ureido)-N-methylpropanamide]	100 to 1000	
(S)-2-(3-([1,1′-biphenyl]-2-ylsulfonyl)ureido)-N-(benzo[d][1,3]dioxol-5-yl)-N-methyl-3-phenylpropanamide [Example 48]		EC50 (antiviral activity class, recombinant NL4-3 Renilla luciferase virus in MT-2 cells, read-out: Activity): 1000 to 10000 nM
(S)—N-((1-(3,3-dimethylazetidin-1-yl)-1-oxo-3-phenylpropan-2-yl)carbamoyl)-2-methylbenzenesulfonamide [Example 191]		EC50 [3]: > 100000 nM
(S)—N-((1-(3-methoxyazetidin-1-yl)-1-oxo-3-phenylpropan-2-yl)carbamoyl)-2-methylbenzenesulfonamide [Example 190]		EC50 [3]: > 100000 nM
